Where two headings read alike, the source gives them in different places.
Test system: SARS-CoV-2 strain USA-WA1/2020
Experiment: microbe, parasite or virus in culture
Assay type: cell-based
Settings: Severe acute respiratory syndrome coronavirus 2, HeLa-ACE2, 24 h, HeLa-ACE2 cells, SARS-CoV-2 infection, 24 h, read-out: EC50, uM (Hela)

Row | SMILES | EC50 (given as bound) [µM] | EC50 [µM]
1 | CC1(NC(=O)C(=O)N2CC3(CCC3)C[C@H]2C(=O)N[C@@H](C[C@@H]2CCNC2=O)C(=O)COC(F)(F)F)CC1 [Compound 558, (S)-6-(2-((l-methylcyclopropyl)-amino)-2-oxoacetyl)-N-((S)-3-oxo-1-((S)-2-oxopyrrolidin-3-yl)-4-(trifluoromethoxy)butan-2-yl)-6-azaspiro[3.4]octane-7-carboxamide] | > 1 | –
2 | O=C1NCC[C@H]1C[C@H](NC(=O)[C@@H]1[C@H]2CCC[C@H]2CN1C(=O)OC1CCOC1)C(=O)COC(F)(F)F (stereo partly drawn) [Compound 559, tetrahydrofuran-3-yl (1S,3aR,6aS)-1-(((S)-3-oxo-1-((S)-2-oxopyrrolidin-3-yl)-4-(trifluoromethoxy)butan-2-yl)carbamoyl)-hexahydrocyclo-penta[c]-pyrrole-2(1H)-carboxylate] | – | 0.05 to 0.2
3 | CC(C)(C)NC(=O)C(=O)N1C[C@H]2C[C@]1(C(=O)N[C@@H](C[C@@H]1CCNC1=O)C(=O)COC(F)(F)F)C2 [Compound 560, (1s,4R)-2-(2-(tert-butylamino)-2-oxoacetyl)-N-((S)-3-oxo-1-((S)-2-oxopyrrolidin-3-yl)-4-(trifluoromethoxy)butan-2-yl)-2-azabicyclo-[2.1.1]hexane-1-carboxamide] | > 1 | –
4 | CC(C)(C)NC(=O)C(=O)N1C[C@@H]2CC[C@@H]2[C@H]1C(=O)N[C@@H](C[C@@H]1CCNC1=O)C(=O)COC(F)(F)F [Compound 561, (1S,2S,5R)-3-(2-(tert-butylamino)-2-oxoacetyl)-N-((S)-3-oxo-1-((S)-2-oxopyrrolidin-3-yl)-4-(trifluoromethoxy)butan-2-yl)-3-azabicyclo-[3.2.0]heptane-2-carboxamide] | – | 0.2 to 0.5
5 | O=C(Nc1ccccc1F)C(=O)N1C[C@H]2C[C@]1(C(=O)N[C@@H](C[C@@H]1CCNC1=O)C(=O)COC(F)(F)F)C2 [Compound 562, (1 s,4R)-2-(2-((2-fluorophenyl)amino)-2-oxoacetyl)-N-((S)-3-oxo-1-((S)-2-oxopyrrolidin-3-yl)-4-(trifluoromethoxy)butan-2-yl)-2-azabicyclo-[2.1.1]hexane-1-carboxamide] | > 1 | –
6 | O=C(Nc1ccccc1F)C(=O)N1C[C@@H]2CC[C@@H]2[C@H]1C(=O)N[C@@H](C[C@@H]1CCNC1=O)C(=O)COC(F)(F)F [Compound 563, (1S,2S, 5R)-3-(2-((2-fluorophenyl)amino)-2-oxoacetyl)-N-((S)-3-oxo-1-((S)-2-oxopyrrolidin-3-yl)-4-(trifluoromethoxy)butan-2-yl)-3-azabicyclo-[3.2.0]heptane-2-carboxamide] | – | 0.05 to 0.2
7 | CC(C)(C[C@H](NC(=O)C(=O)NC12CC(F)(C1)C2)C(=O)N[C@@H](C[C@@H]1CCNC1=O)C(=O)COC(F)(F)F)C(F)F [Compound 564, N1-((S)-5,5-difluoro-4,4-dimethyl-1-oxo-1-(((S)-3-oxo-1-((S)-2-oxopyrrolidin-3-yl)-4-(trifluoromethoxy)butan-2-yl)amino)pentan-2-yl)-N2-(3-fluorobicyclo[1.1.1]-pentan-1-yl)oxalamide] | – | < 0.05
8 | O=C(N[C@@H](CC1CCC1)C(=O)N[C@@H](C[C@@H]1CCNC1=O)C(=O)COC(F)(F)F)C(=O)NC12CC(F)(C1)C2 [Compound 565, N1-((S)-3-cyclobutyl-1-oxo-1-(((S)-3-oxo-1-((S)-2-oxopyrrolidin-3-yl)-4-(trifluoromethoxy)butan-2-yl)amino)propan-2-yl)-N2-(3-fluorobicyclo[1.1.1]-pentan-1-yl)oxalamide] | – | < 0.05
9 | CC(C)(C#N)NC(=O)C(=O)N1C[C@@H]2CCC[C@@H]2[C@H]1C(=O)N[C@@H](C[C@@H]1CCNC1=O)C(=O)COC(F)(F)F [Compound 566, (1S,3aR,6aS)-2-(2-((2-cyanopropan-2-yl)amino)-2-oxoacetyl)-N-((S)-3-oxo-1-((S)-2-oxopyrrolidin-3-yl)-4-(trifluoromethoxy)butan-2-yl)octahydrocyclo-penta[c]pyrrole-1-carboxamide] | – | 0.05 to 0.2
10 | CC(C)(C)NC(=O)C(=O)N1CCC[C@@]1(CC1CC1)C(=O)N[C@@H](C[C@@H]1CCNC1=O)C(=O)COC(F)(F)F [Compound 567, (R)-1-(2-(tert-butylamino)-2-oxoacetyl)-2-(cyclopro-pylmethyl)-N-((S)-3-oxo-1-((S)-2-oxopyrrolidin-3-yl)-4-(trifluoromethoxy)butan-2-yl)pyrrolidine-2-carboxamide] | – | 0.2 to 0.5
11 | CC1(C)CCc2onc(C(=O)N3CC4(CC4)C[C@H]3C(=O)N[C@@H](C[C@@H]3CCNC3=O)C(=O)COC(F)(F)F)c2C1 [Compound 568, (S)-5-(5,5-dimethyl-4,5,6,7-tetrahydro-benzo[d]isoxazole-3-carbonyl)-N-((S)-3-oxo-1-((S)-2-oxopyrrolidin-3-yl)-4-(trifluoromethoxy)butan-2-yl)-5-azaspiro[2.4]-heptane-6-carboxamide] | – | 0.05 to 0.2
12 | COC(=O)C(=O)N1C[C@@H]2CCC[C@@H]2[C@H]1C(=O)N[C@@H](C[C@@H]1CCNC1=O)C(=O)COC(F)(F)F [Compound 569, methyl 2-oxo-2-((1S,3aR,6aS)-1-(((S)-3-oxo-1-((S)-2-oxopyrrolidin-3-yl)-4-(trifluoromethoxy)butan-2-yl)carbamoyl)-hexahydrocyclo-penta[c]-pyrrol-2(1H)-yl)acetate] | > 1 | –
13 | O=C(NCC(F)(F)F)C(=O)N1CC2(CC2)C[C@H]1C(=O)N[C@@H](C[C@@H]1CCNC1=O)C(=O)COC(F)(F)F [Compound 570] | – | 0.05 to 0.2
14 | CC1(NC(=O)C(=O)N2CC3(CC3)C[C@H]2C(=O)N[C@@H](C[C@@H]2CCNC2=O)C(=O)COC(F)(F)F)CC1 [Compound 571, (S)-5-(2-((l-methylcyclopropyl)-amino)-2-oxoacetyl)-N-((S)-3-oxo-1-((S)-2-oxopyrrolidin-3-yl)-4-(trifluoromethoxy)butan-2-yl)-5-azaspiro[2.4]-heptane-6-carboxamide] | – | 0.05 to 0.2
15 | O=C1NCC[C@H]1C[C@H](NC(=O)[C@@H]1CC2(CC2)CN1C(=O)c1cc(C(F)F)on1)C(=O)COC(F)(F)F [Compound 572, (S)-5-(5-(difluoromethyl)-isoxazole-3-carbonyl)-N-((S)-3-oxo-1-((S)-2-oxopyrrolidin-3-yl)-4-(trifluoromethoxy)butan-2-yl)-5-azaspiro[2.4]-heptane-6-carboxamide] | – | < 0.05
16 | CC1(C[C@H](NC(=O)C(=O)NC23CC(F)(C2)C3)C(=O)N[C@@H](C[C@@H]2CCNC2=O)C(=O)COC(F)(F)F)CCC1 [Compound 573, N1-(3-fluorobicyclo[1.1.1]pentan-1-yl)-N2-((S)-3-(1-methylcyclobutyl)-1-oxo-1-(((S)-3-oxo-1-((S)-2-oxopyrrolidin-3-yl)-4-(trifluoromethoxy)butan-2-yl)amino)propan-2-yl)oxalamide] | – | < 0.05
17 | CC(C)(C)NC(=O)C(=O)N1C[C@@H]2CCC[C@@H]2[C@H]1C(=O)N[C@@H](Cc1ccc[nH]c1=O)C(=O)COC(F)(F)F [Compound 574, (1S,3aR,6aS)-2-(2-(tert-butylamino)-2-oxoacetyl)-N-((S)-3-oxo-1-(2-oxo-1,2-dihydropyridin-3-yl)-4-(trifluoromethoxy)butan-2-yl)octahydrocyclo-penta[c]pyrrole-1-carboxamide] | – | 0.5 to 1
18 | COc1ccccc1NC(=O)C(=O)N1CC2(CC2)C[C@H]1C(=O)N[C@@H](C[C@@H]1CCNC1=O)C(=O)COC(F)(F)F [Compound 575, (S)-5-(2-((2-methoxyphenyl)-amino)-2-oxoacetyl)-N-((S)-3-oxo-1-((S)-2-oxopyrrolidin-3-yl)-4-(trifluoromethoxy)butan-2-yl)-5-azaspiro[2.4]-heptane-6-carboxamide] | – | 0.5 to 1
19 | O=C(Nc1ccccc1C(F)(F)F)C(=O)N1CC2(CC2)C[C@H]1C(=O)N[C@@H](C[C@@H]1CCNC1=O)C(=O)COC(F)(F)F [Compound 576, (S)-N-((S)-3-oxo-1-((S)-2-oxopyrrolidin-3-yl)-4-(trifluoromethoxy)butan-2-yl)-5-(2-oxo-2-((2-(trifluoromethyl)-phenyl)amino)acetyl)-5-azaspiro[2.4]-heptane-6-carboxamide] | – | < 0.05
20 | CC1(C[C@H](NC(=O)C(=O)NC2(C)CC2)C(=O)N[C@@H](C[C@@H]2CCNC2=O)C(=O)COC(F)(F)F)CC1 [Compound 577, Nl-(l-methylcyclo-propyl)-N2-(3-(1-methylcyclopropyl)-1-oxo-1-(((S)-3-oxo-1-((S)-2-oxopyrrolidin-3-yl)-4-(trifluoromethoxy)butan-2-yl)amino)propan-2-yl)oxalamide] | – | < 0.05
21 | CC1(CC(NC(=O)C(=O)NC2CC2)C(=O)N[C@@H](C[C@@H]2CCNC2=O)C(=O)COC(F)(F)F)CC1 (stereo partly drawn) [Compound 578, N1-cyclopropyl-N2-(3-(1-methylcyclopropyl)-1-oxo-1-(((S)-3-oxo-1-((S)-2-oxopyrrolidin-3-yl)-4-(trifluoromethoxy)butan-2-yl)amino)propan-2-yl)oxalamide] | – | < 0.05
22 | O=C(NC12CC(F)(C1)C2)C(=O)N[C@]1(C(=O)N[C@@H](C[C@@H]2CCNC2=O)C(=O)COC(F)(F)F)C[C@H]1C1CC1 [Compound 579, N1-(3-fluorobicyclo-[1.1.1]pentan-1-yl)-N2-((1S,2R)-2-(((S)-3-oxo-1-((S)-2-oxopyrrolidin-3-yl)-4-(trifluoromethoxy)butan-2-yl)carbamoyl)-[1,1′-bi(cyclopropan)]-2-yl)oxalamide] | > 1 | –
23 | CC(C)C[C@H](NC(=O)c1ncon1)C(=O)N[C@@H](C[C@@H]1CCNC1=O)C(=O)COC(F)(F)F [Compound 580, N-((S)-4-methyl-1-oxo-1-(((S)-3-oxo-1-((S)-2-oxopyrrolidin-3-yl)-4-(trifluoromethoxy)butan-2-yl)amino)pentan-2-yl)-1,2,4-oxadiazole-3-carboxamide] | – | 0.2 to 0.5
24 | C[C@@]12C[C@@H](C(=O)N[C@@H](C[C@@H]3CCNC3=O)C(=O)COC(F)(F)F)N(C(=O)C(=O)Nc3ccccc3F)[C@@H]1C2 [Compound 581, (1R, 3S, 5R)-2-(2-((2-fluorophenyl)amino)-2-oxoacetyl)-5-methyl-N-((S)-3-oxo-1-((S)-2-oxopyrrolidin-3-yl)-4-(trifluoromethoxy)butan-2-yl)-2-azabicyclo-[3.1.0]hexane-3-carboxamide] | > 1 | –
